Tests used:
[1] = tested on: LPS-induced TNFα production in primary microglia; test: In vitro primary microglia TNFα assay; type: cell-based, Sprague Dawley rat; settings: Rattus norvegicus, 10 μM compound, LPS 10 ng/ml, 4 hrs, ELISA, read-out: inhibition of LPS-induced TNFα production
Text: Mixed glial cells were obtained from the cerebral cortex of Sprague Dawley rat pups at postnatal days 1–3. Briefly, neonates were euthanized by decapitation and their brain tissues were collected for cortex isolation. The isolated cortex was then trypsinized, triturated, and placed into tissue culture flasks in DMEM supplemented with 10% fetal bovine serum and 1% Penicillin/Streptomycin. After 10 days in vitro, microglia were harvested by gentle shaking of the growth flask, plated in a 96 well plate at a density of 30,000 cells/well, and incubated at 37°C overnight.

[2] = tested on: LPS-induced TNFα response; test: In vivo LPS assay; design: species or system C57Bl/6J mice; settings: 90 min post-LPS
Protocol: (§1) ; subcutaneous; […]; intraperitoneal; n = 4) or vehicle (5% DMSO/20%PEG400/water; intraperitoneal; n = 12) 15 min prior to LPS (50 ug/kg; intraperitoneal). A control group was injected with vehicle 15 minutes prior to saline (n = 18). Following injections, mice were single-housed. At 90 min post-LPS/saline, mice were deeply anesthetized with isoflurane and blood was collected from the right ventricle via cardiac puncture (23 g needle) into lithium heparin-containing vials (BD microtainer plasma tubes). Subsequently, brains were collected after perfusion with phosphate-buffered saline. Plasma was separated by centrifugation (11,000 rpm for 3 minutes) within 60 min of collection and stored at -80°C until analysis. The concentration of TNFα in the collected plasma was measured by ELISA (Invitrogen, KMC3012) according to the manufacturer’s instruction. The LPS-induced inflammatory response in the CNS was assessed by measuring mRNA expression for genes related to neuroimmune activation in brain tissue according to the previously reported method. Briefly, total RNA was extracted from hippocampus containing coronal sections using the RNeasy Lipid Tissue Mini Kit (Qiagen), and transcribed into cDNA (Superscript III, Invitrogen). PCR was performed in duplicate using TaqMan gene expression assays, TNFα (Mm00443258_m1), IL1b (Mm00434228_m1), IL6 (Mm00446190_m1), and glyceraldehyde-3-phosphate dehydrogenase (GAPDH; Mm99999915_g1). Fold changes of expression relative to control were determined after normalization to GAPDH. Relative quantification and fold change were calculated by the comparative CT method. Brain uptake of STD-101-D1 was determined in brain tissue. […]

[3] = Pharmacokinetic study 1, 4-hr time course; type: in vivo, Sprague-Dawley rats; settings: rat; for AUCinf / Cmax: 10 mg/kg PO
Text: Two cohorts of Sprague-Dawley rats were used in two independent studies. All animals were fasted overnight before the experiment with free access to water. In study 1, a total of 18 rats were used for a 4 hr time course pharmacokinetic (PK) study. Rats were anesthetized with 3% isoflurane and catheters were implanted into the jugular and/or portal veins for compound administration and/or blood sampling at 1 to 2 days prior to the experiments as previously described. […] Four hours post-dose, rats were deeply anesthetized with isoflurane and blood samples were collected by cardiac puncture. In study 2, a total of 18 rats were used for a 20 min post-dose collection study. […] At 20 min post-dose, rats were deeply anesthetized with isoflurane and blood samples were collected by cardiac puncture. Brains were collected after perfusion with phosphate buffered saline. All plasma samples were immediately separated after collection by centrifugation (11,000 rpm for 3 minutes) and stored at −80°C until analysis. […] Tulobuterol was used as the internal standard. The flow rate was set to 0.45 ml/min. Column temperature was 25°C. […] The injection volume was 20 μl. The mass spectrometer was operated in the positive mode with multiple-reaction monitoring (MRM). […] Mobile phase A consisted of 10 mM ammonium acetate and 0.1% formic acid in LCMS grade water. Mobile phase B consisted of 10 mM ammonium acetate and 0.1% formic acid in LCMS grade acetonitrile:water 90:10% (v/v). […] Five μl of the extracted samples were injected. […] Data acquisition and analysis were performed using the Analyst 1.6.1 software (AB SCIEX, CA).

[4] = Cardiovascular studies (heart rate, blood pressure); type: in vivo, Sprague-Dawley rats; settings: anesthetized rats, 3 mg/kg subcutaneous
Protocol: A polyethylene catheter (PE50) filled with heparinized saline was then inserted into the tail artery and connected to the blood pressure transducer system. After ensuring the absence of any air bubbles, 5–10 min of baseline systolic and diastolic blood pressure along with heart rate measurements were recorded using LabChart Pro (AD Instruments, CO).

ADRB3 = ADRB3 (Homo sapiens, UniProt P13945); test: Radioligand binding ADRB3; settings: S2 Table; hot ligand [3H]CGP12177; read-out: Binding Affinity Ki
ADRB3, sequence (P13945 whole entry): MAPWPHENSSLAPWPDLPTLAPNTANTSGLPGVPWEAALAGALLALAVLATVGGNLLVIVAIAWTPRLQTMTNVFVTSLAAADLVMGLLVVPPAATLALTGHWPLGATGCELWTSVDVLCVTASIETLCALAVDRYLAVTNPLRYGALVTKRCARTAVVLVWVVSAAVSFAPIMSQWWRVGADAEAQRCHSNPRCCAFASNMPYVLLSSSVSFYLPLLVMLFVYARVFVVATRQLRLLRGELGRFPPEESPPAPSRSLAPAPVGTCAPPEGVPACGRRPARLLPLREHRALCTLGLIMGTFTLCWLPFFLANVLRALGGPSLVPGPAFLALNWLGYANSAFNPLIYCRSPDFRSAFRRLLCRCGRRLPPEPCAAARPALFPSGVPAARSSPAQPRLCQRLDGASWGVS

ADR- Alpha 1B = ADR- Alpha 1B (Homo sapiens, UniProt P35368); test: Radioligand binding ADR Alpha 1B; settings: S2 Table; hot ligand [3H] Prazosin; read-out: Binding Affinity Ki
ADR- Alpha 1B, sequence (P35368 whole entry): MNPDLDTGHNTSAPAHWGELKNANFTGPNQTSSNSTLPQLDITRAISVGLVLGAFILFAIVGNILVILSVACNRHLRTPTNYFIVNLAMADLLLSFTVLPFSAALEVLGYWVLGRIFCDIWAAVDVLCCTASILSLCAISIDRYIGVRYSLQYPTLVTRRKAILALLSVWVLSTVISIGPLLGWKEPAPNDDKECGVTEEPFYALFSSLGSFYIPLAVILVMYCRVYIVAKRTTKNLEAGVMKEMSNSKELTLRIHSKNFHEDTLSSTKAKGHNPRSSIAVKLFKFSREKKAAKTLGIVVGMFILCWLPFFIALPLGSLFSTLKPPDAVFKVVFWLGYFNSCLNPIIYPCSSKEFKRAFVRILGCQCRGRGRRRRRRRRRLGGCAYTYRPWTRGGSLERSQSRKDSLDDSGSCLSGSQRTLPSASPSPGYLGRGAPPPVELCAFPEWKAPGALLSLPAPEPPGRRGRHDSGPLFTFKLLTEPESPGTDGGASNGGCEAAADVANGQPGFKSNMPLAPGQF

ADR - Alpha 1D = ADR - Alpha 1D (Homo sapiens, UniProt P25100); test: Radioligand binding ADR Alpha 1D; settings: S2 Table; hot ligand [3H] Prazosin; read-out: Binding Affinity Ki
ADR - Alpha 1D, sequence (P25100 whole entry): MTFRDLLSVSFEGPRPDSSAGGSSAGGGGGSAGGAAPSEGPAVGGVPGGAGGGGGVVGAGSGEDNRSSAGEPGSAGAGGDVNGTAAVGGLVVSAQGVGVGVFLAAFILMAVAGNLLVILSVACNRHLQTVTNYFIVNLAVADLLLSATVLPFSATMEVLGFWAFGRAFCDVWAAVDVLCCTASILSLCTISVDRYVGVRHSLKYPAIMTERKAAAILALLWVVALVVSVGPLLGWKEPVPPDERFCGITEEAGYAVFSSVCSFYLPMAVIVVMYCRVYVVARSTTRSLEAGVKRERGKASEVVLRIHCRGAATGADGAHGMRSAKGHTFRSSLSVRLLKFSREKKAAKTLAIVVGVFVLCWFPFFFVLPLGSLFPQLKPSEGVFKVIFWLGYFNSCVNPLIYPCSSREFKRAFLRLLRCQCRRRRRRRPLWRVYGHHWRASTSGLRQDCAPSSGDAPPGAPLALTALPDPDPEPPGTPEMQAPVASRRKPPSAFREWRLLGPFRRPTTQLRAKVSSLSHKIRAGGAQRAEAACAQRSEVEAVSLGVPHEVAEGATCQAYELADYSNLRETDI

5-HT 2A = 5-HT 2A (Homo sapiens, UniProt P28223); test: Radioligand binding 5-HT 2A; settings: S2 Table; hot ligand [3H]Ketanserin; read-out: Binding Affinity Ki
5-HT 2A, sequence (P28223 whole entry, species assumed): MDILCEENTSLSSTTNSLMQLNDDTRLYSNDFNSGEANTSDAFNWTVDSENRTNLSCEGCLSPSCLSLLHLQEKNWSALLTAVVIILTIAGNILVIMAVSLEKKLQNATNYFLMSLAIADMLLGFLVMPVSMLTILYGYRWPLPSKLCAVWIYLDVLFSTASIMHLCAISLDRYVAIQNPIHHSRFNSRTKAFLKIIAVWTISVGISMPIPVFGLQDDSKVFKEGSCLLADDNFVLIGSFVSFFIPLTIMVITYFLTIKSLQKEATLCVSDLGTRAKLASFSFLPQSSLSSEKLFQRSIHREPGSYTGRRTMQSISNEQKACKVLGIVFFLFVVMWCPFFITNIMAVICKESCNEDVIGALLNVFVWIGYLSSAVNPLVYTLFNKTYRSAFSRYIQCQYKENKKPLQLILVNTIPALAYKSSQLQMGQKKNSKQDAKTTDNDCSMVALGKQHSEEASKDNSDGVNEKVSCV

5-HT 2B = 5-HT 2B (Homo sapiens, UniProt P41595); test: Radioligand binding 5-HT 2B; settings: S2 Table; hot ligand [3H]LSD; read-out: Binding Affinity Ki
5-HT 2B, sequence (P41595 whole entry, species assumed): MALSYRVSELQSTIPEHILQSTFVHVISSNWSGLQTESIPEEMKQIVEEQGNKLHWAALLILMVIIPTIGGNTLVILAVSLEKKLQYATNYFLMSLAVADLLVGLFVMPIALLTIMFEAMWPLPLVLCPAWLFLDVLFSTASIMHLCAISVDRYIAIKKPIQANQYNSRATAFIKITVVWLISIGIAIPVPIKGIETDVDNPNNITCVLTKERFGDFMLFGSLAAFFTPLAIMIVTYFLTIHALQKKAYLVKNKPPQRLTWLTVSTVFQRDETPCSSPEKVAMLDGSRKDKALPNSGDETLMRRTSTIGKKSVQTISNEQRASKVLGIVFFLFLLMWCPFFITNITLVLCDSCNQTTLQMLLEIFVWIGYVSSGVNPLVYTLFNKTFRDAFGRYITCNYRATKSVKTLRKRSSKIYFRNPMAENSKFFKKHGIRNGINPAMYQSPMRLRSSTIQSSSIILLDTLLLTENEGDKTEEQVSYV

5-HT 2C = 5-HT 2C (Homo sapiens, UniProt P28335); test: Radioligand binding 5-HT 2C; settings: S2 Table; hot ligand [3H]Mesulergine; read-out: Binding Affinity Ki
5-HT 2C, sequence (P28335 33-458, species assumed): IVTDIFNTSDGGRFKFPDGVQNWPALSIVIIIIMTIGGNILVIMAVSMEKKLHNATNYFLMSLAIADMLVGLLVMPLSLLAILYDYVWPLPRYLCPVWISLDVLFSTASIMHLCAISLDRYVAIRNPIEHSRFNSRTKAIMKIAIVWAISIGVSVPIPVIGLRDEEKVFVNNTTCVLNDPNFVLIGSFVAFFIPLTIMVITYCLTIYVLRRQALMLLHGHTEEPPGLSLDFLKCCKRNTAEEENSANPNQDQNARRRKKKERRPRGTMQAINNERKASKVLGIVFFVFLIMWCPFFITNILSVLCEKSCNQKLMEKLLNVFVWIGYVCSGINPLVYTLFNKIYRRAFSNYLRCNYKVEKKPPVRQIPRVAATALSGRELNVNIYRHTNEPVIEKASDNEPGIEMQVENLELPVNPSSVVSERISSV

[5] = tested on: PBR (peripheral benzodiazepine receptor); test: Radioligand binding PBR; settings: S2 Table; hot ligand [3H]PK11195
Sigma 1 receptor = Sigma 1 receptor (Homo sapiens, UniProt Q99720); test: Radioligand binding Sigma 1 receptor; settings: S2 Table; hot ligand [3H]Pentazocine(+); read-out: Binding Affinity Ki
Sigma 1 receptor, sequence (Q99720 whole entry, species assumed): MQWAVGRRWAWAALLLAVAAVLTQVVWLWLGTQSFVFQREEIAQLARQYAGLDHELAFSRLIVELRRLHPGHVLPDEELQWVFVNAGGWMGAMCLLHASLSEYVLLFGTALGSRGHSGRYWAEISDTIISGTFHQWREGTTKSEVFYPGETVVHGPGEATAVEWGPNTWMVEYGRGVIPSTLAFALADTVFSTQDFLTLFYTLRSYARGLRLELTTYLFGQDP

Sigma 2 receptor = Sigma 2 receptor (Homo sapiens, UniProt Q5BJF2); test: Radioligand binding Sigma 2 receptor; settings: S2 Table; hot ligand [3H]DTG; read-out: Binding Affinity Ki
Sigma 2 receptor, sequence (Q5BJF2 whole entry, species assumed): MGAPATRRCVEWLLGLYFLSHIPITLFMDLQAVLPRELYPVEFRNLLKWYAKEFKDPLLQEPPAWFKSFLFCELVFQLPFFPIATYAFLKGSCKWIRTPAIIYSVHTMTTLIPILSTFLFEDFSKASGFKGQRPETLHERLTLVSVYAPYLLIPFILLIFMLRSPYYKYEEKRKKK

[6] = Brain uptake in the in vivo LPS study; design: species or system C57Bl/6J mice; settings: C57Bl/6J, mouse, ip, mice, 3 mg/kg intraperitoneal, 105 min post-dose, read-out: concentration in brain homogenates
Protocol: as §1, with “Briefly, total RNA was extracted from hippocampus containing coronal sections using the RNeasy Lipid Tissue Mini Kit (Qiagen), and transcribed into cDNA (Superscript III, Invitrogen). PCR was performed in duplicate using TaqMan gene expression assays, TNFα (Mm00443258_m1), IL1b (Mm00434228_m1), IL6 (Mm00446190_m1), and glyceraldehyde-3-phosphate dehydrogenase (GAPDH; Mm99999915_g1).” left out

In the case of COc1ccccc1OCCNC[C@H](O)COc1ccc(O)cc1.COc1ccccc1OCCNC[C@H](O)COc1ccc(O)cc1.O=C(O)/C=C/C(=O)O [STD-101-D1, (S)-4-(2-hydroxy-3-((2-(2-methoxyphenoxy)ethyl)amino)propoxy)phenol hemifumarate], the inhibition at 10 µM [1] is reported as about 50%, the “LPS-induced systemic (plasma) TNFα response” value ([2]; 3 mg/kg pre-treatment 15 min prior to LPS) is reported as “markedly inhibited” and the “CNS IL-1β (mRNA) after LPS” value ([2]; 3 mg/kg pre-treatment) is reported as “trend for attenuation”. For the same compound, the “CNS IL-6 (mRNA) after LPS” value ([2]; 3 mg/kg pre-treatment) was “no effect”, the “LPS-induced inflammatory TNFα response in the brain (mRNA)” value ([2]; 3 mg/kg pre-treatment) was “attenuated” and the “time post-dose at which Cmax was achieved” value ([3]; 10 mg/kg IP, systemic plasma) was 90 min. For the same compound, the AUCinf ([3]; portal vein plasma) was 362 ± 367 ng·h/mL, the Cmax ([3]; portal vein plasma) was 946 ± 867 ng/mL and the AUCinf ([3]; systemic (jugular vein) plasma) was 101 ± 29 ng·h/mL. The Cmax ([3]; systemic (jugular vein) plasma) was 116 ± 78 ng/mL, the “decrease in blood pressure” value [4] was 46% and the “increase in heart rate” value [4] was 13%. It also gave a Ki (ADRB3) of 485 nM, a Ki (ADR- Alpha 1B) of 267 nM and a Ki (ADR - Alpha 1D) of 25 nM. For the same compound, the Ki (5-HT 2A) was 1240 nM, the Ki (5-HT 2B) was 25 nM and the Ki (5-HT 2C) was 1150 nM. For the same compound, the “Binding Affinity Ki” value [5] was “- (< 50% inhibition of radioligand binding at 10 μM STD-101-D1)”, the Ki (Sigma 1 receptor) was 146 nM and the Ki (Sigma 2 receptor) was 236 nM. The concentration at 105 min [6] was 130 ± 28.2 ng/g.

Source: paper PMC5529018, “Discovery of novel brain permeable and G protein-biased beta-1 adrenergic receptor partial agonists for the treatment of neurocognitive disorders” (PLoS ONE, 2017)
